{"source": "patent US20220184055A1", "about": "“CHIAURANIB FOR TREATMENT OF SMALL CELL LUNG CANCER” (SHENZHEN CHIPSCREEN BIOSCIENCES CO., LTD., priority 2019, published 2022)", "key": {"advanced solid tumors": {"tested_on": "advanced solid tumors", "assay": "Phase I clinical trial of chiauranib in patients with advanced solid tumors", "assay_type": "in vivo, human", "conditions": "for objective remission (complete remission CR and partial remission PR): 18 patients, 8 tumor types, oral once daily 10-65 mg dose escalation, RECIST 1.1", "protocol": "Test drug: chiauranib capsules, strength: 5 mg, 25 mg, produced by Shenzhen Chipscreen Biosciences, Co., Ltd.\nDosage regimen: The starting dose was 10 mg/day. After the starting dose, according to the modified Fibonacci method, the patients were enrolled in order from low dose to high dose, and the set dose groups were 20 mg, 35 mg, 50 mg, 65 mg . . . dose groups, respectively, until the MTD was determined.\nChiauranib capsules were administered orally, once a day in the morning. Before knowing the analysis data of the effects of food on bioavailability, the drugs were administered on empty stomach.\nNumber of cases: 18 cases were enrolled.\nThe prescribed dose of Chiauranib capsules was administered orally on empty stomach once every day, and every 28 days was a treatment cycle; there was no stopping interval during the treatment cycles, and all enrolled patients received the test drug treatment until the disease progressed or intolerable toxicity appeared.\nEfficacy evaluation: The clinical benefits of tumor treatment include:\nJudgment criteria: The efficacy was evaluated according to the RECIST version 1.1 (2009) standard of solid tumors.\n(§1) Safety assessment: physical examination, vital signs, ECOG physical score, blood routine, urine routine, 12-lead ECG, blood biochemistry, electrolytes, coagulation function, myocardial enzymes, troponin, TSH, FT3, FT4, amylase, echocardiography, 24-hour urine protein quantification (if necessary), and adverse events were included.\nA total of 18 patients were enrolled in the trial, all of which were included in the FAS, SS, and PPS analysis sets. Among the 18 patients, 7 cases (38.9%) had colorectal cancer, 5 cases (27.8%) had non-small cell lung cancer, and 1 case each for gastric cancer, ovarian cancer, thyroid papillary carcinoma, diffuse large B-cell lymphoma, fibrosarcoma, and poorly differentiated renal carcinoma."}, "[1]": {"tested_on": "recurrent and refractory small cell lung cancer", "assay": "Phase Ib clinical trial of chiauranib alone in recurrent and refractory small cell lung cancer", "assay_type": "in vivo, human", "conditions": "50 mg/day QD oral", "protocol": "Test drug: Chiauranib capsules, strength: 5 mg, 25 mg, produced by Shenzhen Chipscreen Biosciences, Co., Ltd.\nDosage regimen: Chiauranib capsules were administered at 50 mg/day, QD (no adjustments to body weight or body surface area), on an empty stomach every morning with water, swallowing whole capsules intact. Continuous administration for 28 days constituted a treatment cycle, and there was no interval between treatment cycles.\nNumber of cases: 25 cases were enrolled.\nThe test subjects were administered with 50 mg of Chiauranib capsules orally once a day, every 28 days as a treatment cycle, and there was no stopping interval during the treatment cycles. Throughout the trial period, all subjects continued treatment until any of the following conditions (whichever occurred first) occurred: disease progression, intolerable toxic response, death, withdrawal of informed consent, or loss to follow-up.\nEfficacy evaluation: According to the RECIST1.1 standard, evaluation was performed in the baseline period and at the 4th weekend after treatment, and repeated every 8 weeks until the disease progressed. Tumor imaging examinations include CT or MRI of the neck, chest, whole abdomen, and pelvis. Examinations of other parts were carried out when necessary based on clinical indications. The same techniques and methods should be employed for the baseline of the lesion and follow-up assessment and measurement.\nas §1, with “ECOG fitness” for “ECOG physical”, “12-lead ECG” for “12-lead ECG,”"}, "SCLC": {"tested_on": "SCLC", "conditions": "combined with best supportive treatment; cited from earlier work"}, "[2]": {"conditions": "20 patients with efficacy evaluation"}}, "note": "“Also recorded” adds a separate entry of the source."}
{"smiles": "COc1ccc2c(Oc3ccc4c(C(=O)Nc5ccccc5N)cccc4c3)ccnc2c1", "note": "[chiauranib, N-(2-aminophenyl)-6-(7-methoxyquinoline-4-oxo)-1-naphthylamide]", "values": [{"measurement": "PR, number of patients", "setting": "advanced solid tumors; 8 common tumors, 18 patients evaluated", "value": 0}, {"measurement": "objective remission (complete remission CR and partial remission PR)", "setting": "advanced solid tumors", "value": "no objective remission was observed; also recorded: no patients with objective remission were observed"}, {"measurement": "objective remission (complete remission CR and partial remission PR)", "setting": "advanced solid tumors; listed as Chiauranib", "value": "no cases with objective remission were observed"}, {"measurement": "objective response rate (ORR) / PR (%)", "setting": "[1]; [2]", "value": 20, "unit": "%"}, {"measurement": "patients whose target lesions were reduced by more than 30% from baseline, number", "setting": "[1]; [2]", "value": 5, "unit": "patients"}, {"measurement": "patients whose target lesions were reduced by more than 30% from baseline, percent", "setting": "[1]; [2]", "value": 25, "unit": "%"}, {"measurement": "best efficacy evaluation PR, number of patients", "setting": "[1]; 20 patients with efficacy evaluation of 25 enrolled, RECIST 1.1", "value": 4, "unit": "patients"}]}
{"smiles": "CC[C@@]1(O)C(=O)OCc2c1cc1n(c2=O)Cc2cc3c(CN(C)C)c(O)ccc3nc2-1", "note": "[topotecan]", "values": [{"measurement": "overall survival, quality of life and improvement of symptoms versus best supportive treatment alone", "setting": "SCLC", "value": "significantly better"}]}
